Among the data in ChEMBL document CHEMBL1156879, “Ganodermasides A and B, two novel anti-aging ergosterols from spores of a medicinal mushroom Ganoderma lucidum on yeast via UTH1 gene” (Bioorg Med Chem, 2010) are Activity values, retold here.

Common to all, as to assay type: functional, organism-based
Assay [1] concerns Saccharomyces cerevisiae. Briefly: Antiaging effect in Saccharomyces cerevisiae K6001 assessed as extension of replicative life span at 10 uM after 2 days.
For assay [2], the system named is Saccharomyces cerevisiae. Briefly: Effect on SIRT1 expression in Saccharomyces cerevisiae K6001 by SIRT1/Sir2 deacetylase fluorometric assay.
Assay [3] concerns Saccharomyces cerevisiae. Briefly: Effect on SOD1 gene expression in Saccharomyces cerevisiae K6001 at 10 uM by RT-PCR.
Assay [4] deals with Saccharomyces cerevisiae. Briefly: Effect on SOD2 gene expression in Saccharomyces cerevisiae K6001 at 10 uM by RT-PCR.
Assay [5] has as its system Saccharomyces cerevisiae. Briefly: Antiaging effect in Saccharomyces cerevisiae K6001 expressing uth1 mutant assessed as extension of replicative life span after 2 days.
The test system of assay [6] is Saccharomyces cerevisiae. Briefly: Antiaging effect in Saccharomyces cerevisiae K6001 expressing skn7 mutant assessed as extension of replicative life span after 2 days.
The test system of assay [7] is Saccharomyces cerevisiae. Briefly: Antiaging effect in Saccharomyces cerevisiae K6001 assessed as extension of replicative life span after 2 days.

Active and inactive are the calls of the source. No cut-off for these calls is given here.

Regarding `CC(C)[C@@H](C)/C=C/[C@@H](C)[C@H]1C[C@H](O)C2=C3C=CC4=CC(=O)CC[C@]4(C)C3CC[C@@]21C` (some centres undefined), the outcome in the assay on Saccharomyces cerevisiae [1] was Active. The result in the assay on Saccharomyces cerevisiae [2], in the assay on Saccharomyces cerevisiae [3], with Saccharomyces cerevisiae [4], in the assay with Saccharomyces cerevisiae [5] and in the assay with Saccharomyces cerevisiae [6] was inactive.
Turning to `Oc1ccc(/C=C/c2cc(O)cc(O)c2)cc1`, the Activity entry with Saccharomyces cerevisiae [7] was “Dose-dependent effect”. Also, in the assay with Saccharomyces cerevisiae [1], the result was Active.
With `CC(C)[C@@H](C)/C=C/[C@@H](C)[C@H]1C[C@@H](O)C2=C3C=CC4=CC(=O)CC[C@]4(C)C3CC[C@@]21C` (some centres undefined), the outcome in the assay on Saccharomyces cerevisiae [1] was Active. In addition, the outcome in the assay on Saccharomyces cerevisiae [2], in the assay on Saccharomyces cerevisiae [3], in the assay with Saccharomyces cerevisiae [4], with Saccharomyces cerevisiae [5] and with Saccharomyces cerevisiae [6] was inactive.
